The results in this text go back to patent US20240246955A1, “TROPOMYOSIN RECEPTOR KINASE (TRK) DEGRADATION COMPOUNDS AND METHODS OF USE” (CULLGEN (SHANGHAI), INC., priority 2021, published 2024).

The target of one experiment is T1, TPM3-TRKA fusion protein (Homo sapiens, UniProt P04629).
T1 construct: TPM3 (N-terminal part of tropomyosin alpha-3, natural fusion partner); endogenous in cells; host or cells: KM12 colon cancer cells; the other entry of the earlier key: TPM3 (P06753, Tropomyosin alpha-3 chain)
T1 sequence (P04629 with tags, fused parts or gaps): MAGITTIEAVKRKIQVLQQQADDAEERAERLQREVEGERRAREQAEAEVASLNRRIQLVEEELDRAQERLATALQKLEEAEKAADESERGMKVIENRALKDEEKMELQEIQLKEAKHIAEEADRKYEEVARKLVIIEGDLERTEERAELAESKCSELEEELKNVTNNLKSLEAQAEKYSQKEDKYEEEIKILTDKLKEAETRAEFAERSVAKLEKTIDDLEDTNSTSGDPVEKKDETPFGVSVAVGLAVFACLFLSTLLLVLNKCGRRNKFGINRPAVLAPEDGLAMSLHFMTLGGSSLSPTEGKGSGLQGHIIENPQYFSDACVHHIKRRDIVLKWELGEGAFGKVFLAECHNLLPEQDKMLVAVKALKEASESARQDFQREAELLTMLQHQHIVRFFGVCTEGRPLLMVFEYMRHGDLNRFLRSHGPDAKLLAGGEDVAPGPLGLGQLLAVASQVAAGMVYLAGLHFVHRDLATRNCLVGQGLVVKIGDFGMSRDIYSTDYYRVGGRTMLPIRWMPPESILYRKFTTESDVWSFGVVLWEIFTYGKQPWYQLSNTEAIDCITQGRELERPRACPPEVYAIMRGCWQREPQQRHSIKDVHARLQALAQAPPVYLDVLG
Kind of experiment: TPM3-TRKA degradation in KM12 cells (Western blot). The class given is cell-based. The conditions noted are these: 16 hours, TRK protein, immunoblot; for inhibition at 0.01 µM: 10 nM; for inhibition at 0.1 µM: 100 nM. On the procedure: Specific exemplary heterobifunctional compounds were characterized in KM12 cells. KM12 cells that express TPM3-TRKA fusion protein were treated with 10 nM or 100 nM heterobifunctional compounds disclosed herein or their corresponding warheads/inhibitors for 16 hours. Cells were collected, lysed and subject to immunoblotting using an antibody specific to TRK proteins.
KM12 cells were treated with heterobifunctional compounds at 10 nM or 100 nM for 16 hours.
Cultured cells were washed with cold PBS once and lysed in cold RIPA buffer supplemented with protease inhibitors and phosphatase inhibitors (Beyotime Biotechnology). The solutions were then incubated at 4° C. for 30 minutes with gentle agitation to fully lyse cells. Cell lysates were centrifuged at 13,000 rpm for 10 minutes at 4° C. and pellets were discarded. Total protein concentrations in the lysates were determined by BCA assays (Beyotime Biotechnology). Cell lysates were mixed with Laemmli loading buffer to 1× and heated at 99° C. for 5 min. Proteins were resolved on SDS-PAGE and visualized by chemiluminescence. Images were taken by a ChemiDoc MP Imaging system (Bio-Rad). Protein bands were quantitated using the software provided by Bio-Rad.
The percentage of TRK protein degradation of each compound at 10 nM and 100 nM was determined in KM12 cells as described in Methods. The percentage of degradation of each compound was indicated in the following categories: N/A: data not available; −: no degradation; +: degradation less than 50%; ++: degradation equal or greater than 50% but less than […]; +++: degradation equal or greater than 80%.
A general note: A western blot detects proteins with antibodies after separation by electrophoresis.

Another experiment deals with KM12 cells. Description: KM12 cell viability assay (CellTiter-Glo). The class given is cell-based. The conditions noted are these: Homo sapiens, 72 h; KM12 cells, 3 days, CellTiter-Glo. On the procedure:
The kinase activity of TRK is known to play important roles in tumors expressing TRK-fusion proteins, as TRK kinase inhibitors compromise cell proliferation, survival, and induce marked clinical responses (Amatu et al., 2016; Drilon et al., 2018; Drilon et al., 2017; Khotskaya et al., 2017). KM12 cells seeded in 96-well plates were treated with heterobifunctional compounds following a 11-point 3-fold serial dilution. Three days after treatment, cell viability was determined using the CellTiter-Glo kit, and normalized to the mean values of 3 replicates of untreated cells. Dose-dependent response was analyzed following the least-squares non-linear regression method using the GraphPad Prism software. Each data point in the figure represents the mean values of three technical replicates ±standard deviation.
KM12 cells seeded in 96-well plates were treated with heterobifunctional compounds following a 11-point 3-fold serial dilution for 3 days.
KM12, TRKA G595R mutated KM12, HEL, and other cells were cultured at 37° C. with 5% CO2 in DMEM or RPMI 1640 Medium supplemented with 10% fetal bovine serum. Cells were authenticated using the short tandem repeat (STR) assays. Mycoplasma test results were negative.
Cells were seeded at a density of 5000 cells per well in 96-well assay plates and treated with test compounds following a 11-point 3-fold serial dilution. Three days later, cell viability was determined using the CellTiter-Glo assay kit (Promega) according to the manufacturer's instructions. The dose-response curves were determined and IC50 values were calculated using the GraphPad Prism software following a nonlinear regression (least squares fit) method.
In general terms: Cellular ATP, detected with luciferase, serves as a proxy for viable cell number.

Each structure is given as a SMILES string.

Turning to `COCCN1C[C@@H](NC(=O)Nc2c(C)c(-c3cnc(N4CCN(C(=O)CNC(=O)C[C@H](NC(=O)[C@@H]5C[C@@H](O)CN5C(=O)[C@@H](NC(=O)C5(F)CC5)C(C)(C)C)c5ccc(-c6scnc6C)cc5)CC4)nc3)nn2-c2ccccc2)[C@H](c2cccc(F)c2)C1` [CPD-011, (2S,4R)-1-((S)-2-(1-fluorocyclopropane-1-carboxamido)-3,3-dimethylbutanoyl)-N-((S)-3-((2-(4-(5-(5-(3-((3S,4R)-4-(3-fluorophenyl)-1-(2-methoxyethyl)pyrrolidin-3-yl)ureido)-4-methyl-1-phenyl-1H-pyrazol-3-yl)pyrimidin-2-yl)piperazin-1-yl)-2-oxoethyl)amino)-1-(4-(4-methylthiazol-5-yl)phenyl)-3-oxopropyl)-4-hydroxypyrrolidine-2-carboxamide], at TPM3-TRKA fusion protein, the inhibition at 0.01 µM was under 50% and the inhibition at 0.1 µM lay within 50 to 800%. Moreover, the IC50 in the experiment with KM12 cells was determined as 119 nM.
For `COCCN1C[C@@H](NC(=O)Nc2c(C)c(-c3cnc(N4CCN(C(=O)CCCCCNC(=O)C[C@H](NC(=O)[C@@H]5C[C@@H](O)CN5C(=O)[C@@H](NC(=O)C5(F)CC5)C(C)(C)C)c5ccc(-c6scnc6C)cc5)CC4)nc3)nn2-c2ccccc2)[C@H](c2cccc(F)c2)C1` [CPD-012, (2S,4R)-1-((S)-2-(1-fluorocyclopropane-1-carboxamido)-3,3-dimethylbutanoyl)-N-((S)-3-((6-(4-(5-(5-(3-((3S,4R)-4-(3-fluorophenyl)-1-(2-methoxyethyl)pyrrolidin-3-yl)ureido)-4-methyl-1-phenyl-1H-pyrazol-3-yl)pyrimidin-2-yl)piperazin-1-yl)-6-oxohexyl)amino)-1-(4-(4-methylthiazol-5-yl)phenyl)-3-oxopropyl)-4-hydroxypyrrolidine-2-carboxamide], on TPM3-TRKA fusion protein, the inhibition at 0.01 µM was under 50% and the inhibition at 0.1 µM was 50 to 800%. Moreover, the IC50 in the experiment on KM12 cells turned out to be 132 nM.
As for `COCCN1C[C@@H](NC(=O)Nc2c(C)c(-c3cnc(N4CCN(C(=O)CCCNC(=O)C[C@H](NC(=O)[C@@H]5C[C@@H](O)CN5C(=O)[C@@H](NC(=O)C5(F)CC5)C(C)(C)C)c5ccc(-c6scnc6C)cc5)CC4)nc3)nn2-c2ccccc2)[C@H](c2cccc(F)c2)C1` [CPD-013, (2S,4R)-1-((S)-2-(1-fluorocyclopropane-1-carboxamido)-3,3-dimethylbutanoyl)-N-((S)-3-((4-(4-(5-(5-(3-((3S,4R)-4-(3-fluorophenyl)-1-(2-methoxyethyl)pyrrolidin-3-yl)ureido)-4-methyl-1-phenyl-1H-pyrazol-3-yl)pyrimidin-2-yl)piperazin-1-yl)-4-oxobutyl)amino)-1-(4-(4-methylthiazol-5-yl)phenyl)-3-oxopropyl)-4-hydroxypyrrolidine-2-carboxamide], at TPM3-TRKA fusion protein, the inhibition at 0.01 µM is under 50% and the inhibition at 0.1 µM is 50 to 800%. In the experiment on KM12 cells, this molecule showed an IC50 of 79.7 nM.
In the case of `COCCN1C[C@@H](NC(=O)Nc2c(C)c(-c3cnc(N4CCN(C(=O)CCCCCCCNC(=O)C[C@H](NC(=O)[C@@H]5C[C@@H](O)CN5C(=O)[C@@H](NC(=O)C5(F)CC5)C(C)(C)C)c5ccc(-c6scnc6C)cc5)CC4)nc3)nn2-c2ccccc2)[C@H](c2cccc(F)c2)C1` [CPD-014, (2S,4R)-1-((S)-2-(1-fluorocyclopropane-1-carboxamido)-3,3-dimethylbutanoyl)-N-((S)-3-((8-(4-(5-(5-(3-((3S,4R)-4-(3-fluorophenyl)-1-(2-methoxyethyl)pyrrolidin-3-yl)ureido)-4-methyl-1-phenyl-1H-pyrazol-3-yl)pyrimidin-2-yl)piperazin-1-yl)-8-oxooctyl)amino)-1-(4-(4-methylthiazol-5-yl)phenyl)-3-oxopropyl)-4-hydroxypyrrolidine-2-carboxamide], at TPM3-TRKA fusion protein, the inhibition at 0.01 µM lay within 50 to 800% and the inhibition at 0.1 µM was over 80%. In addition, in the experiment with KM12 cells, the IC50 was 17.8 nM.
In the case of `COCCN1C[C@@H](NC(=O)Nc2c(C)c(-c3cnc(N4CCN(C(=O)CCCCCCCCCNC(=O)C[C@H](NC(=O)[C@@H]5C[C@@H](O)CN5C(=O)[C@@H](NC(=O)C5(F)CC5)C(C)(C)C)c5ccc(-c6scnc6C)cc5)CC4)nc3)nn2-c2ccccc2)[C@H](c2cccc(F)c2)C1` [CPD-015, (2S,4R)-1-((S)-2-(1-fluorocyclopropane-1-carboxamido)-3,3-dimethylbutanoyl)-N-((S)-3-((10-(4-(5-(5-(3-((3S,4R)-4-(3-fluorophenyl)-1-(2-methoxyethyl)pyrrolidin-3-yl)ureido)-4-methyl-1-phenyl-1H-pyrazol-3-yl)pyrimidin-2-yl)piperazin-1-yl)-10-oxodecyl)amino)-1-(4-(4-methylthiazol-5-yl)phenyl)-3-oxopropyl)-4-hydroxypyrrolidine-2-carboxamide], on TPM3-TRKA fusion protein, the inhibition at 0.01 µM was 50 to 800% and the inhibition at 0.1 µM is 50 to 800%. In the experiment on KM12 cells, the midpoint of inhibition, the IC50, lay at 35.5 nM.
For `COCCN1C[C@@H](NC(=O)Nc2c(C)c(-c3cnc(N4CCN(C(=O)CCOCCOCCNC(=O)C[C@H](NC(=O)[C@@H]5C[C@@H](O)CN5C(=O)[C@@H](NC(=O)C5(F)CC5)C(C)(C)C)c5ccc(-c6scnc6C)cc5)CC4)nc3)nn2-c2ccccc2)[C@H](c2cccc(F)c2)C1` [CPD-016, (2S,4R)-1-((S)-2-(1-fluorocyclopropane-1-carboxamido)-3,3-dimethylbutanoyl)-N-((S)-3-((2-(2-(3-(4-(5-(5-(3-((3S,4R)-4-(3-fluorophenyl)-1-(2-methoxyethyl)pyrrolidin-3-yl)ureido)-4-methyl-1-phenyl-1H-pyrazol-3-yl)pyrimidin-2-yl)piperazin-1-yl)-3-oxopropoxy)ethoxy)ethyl)amino)-1-(4-(4-methylthiazol-5-yl)phenyl)-3-oxopropyl)-4-hydroxypyrrolidine-2-carboxamide], at TPM3-TRKA fusion protein, the inhibition at 0.01 µM is under 50% and the inhibition at 0.1 µM was in the range of 50 to 800%. The molecule also registered an IC50 in the experiment with KM12 cells of 190 nM.
As for `COCCN1C[C@@H](NC(=O)Nc2c(C)c(-c3cnc(N4CCN(C(=O)CCOCCOCCOCCNC(=O)C[C@H](NC(=O)[C@@H]5C[C@@H](O)CN5C(=O)[C@@H](NC(=O)C5(F)CC5)C(C)(C)C)c5ccc(-c6scnc6C)cc5)CC4)nc3)nn2-c2ccccc2)[C@H](c2cccc(F)c2)C1` [CPD-017, (2S,4R)-1-((S)-2-(1-fluorocyclopropane-1-carboxamido)-3,3-dimethylbutanoyl)-N-((S)-16-(4-(5-(5-(3-((3S,4R)-4-(3-fluorophenyl)-1-(2-methoxyethyl)pyrrolidin-3-yl)ureido)-4-methyl-1-phenyl-1H-pyrazol-3-yl)pyrimidin-2-yl)piperazin-1-yl)-1-(4-(4-methylthiazol-5-yl)phenyl)-3,16-dioxo-7,10,13-trioxa-4-azahexadecyl)-4-hydroxypyrrolidine-2-carboxamide], the inhibition at 0.1 µM on TPM3-TRKA fusion protein lay within 50 to 800%. Moreover, the midpoint of inhibition with KM12 cells, the IC50, lay at 445 nM.

A word on the inhibition: it is the relative decrease from the control value, in per cent. The IC50 is the midpoint of a concentration-inhibition curve. A low value points to greater potency.
